# Measured values as given in patent publication US11964973B2 (priority 2019, dated 2024).
# System: Human venous whole blood (IFN-γ)
# Assay: Human whole blood IFN-γ assay
# Format: cell-based
# Conditions: Homo sapiens, 24 h, human whole blood, anti-CD3 plus anti-CD28, 24 hours; read-out: INFg Whole Blood Normalized Agonist EC50
# Experimental: Assay 10: Human Whole Blood IFN-γ Assay
# Human venous whole blood (22.5 μL per well), obtained from healthy donors, was pre-treated with compounds for one hour at 37° C. in a humidified 95% air/5% CO2 incubator. The blood was stimulated with 2.5 μL anti-human CD3 and anti-CD28 mAb at a final concentration of 1 μg/mL each for 24 hours at 37° C. IFN-γ in the supernatants was measured using AlphLISA kit (Cat #AL217).
row,SMILES,EC50 [µM]
1,"CC[C@@H]1CN(c2cc(=O)n(C)c3ccc(C#N)nc23)CC[C@H]1Oc1ccc(C(F)(F)F)cc1 (racemic) [Example 146, 8-((3R,4R)-3-ethyl-4-(4-(trifluoromethyl)phenoxy)piperidin-1-yl)-5-methyl-6-oxo-5,6-dihydro-1,5-naphthyridine-2-carbonitrile]",1.7
2,"CC[C@@H]1CN(c2cc(=O)n(C)c3ccc(C#N)nc23)CC[C@H]1Oc1ccc(C(C)(C)C)cc1 (racemic) [Example 152, 8-((3R,4R)-4-(4-(tert-butyl)phenoxy)-3-ethylpiperidin-1-yl)-5-methyl-6-oxo-5,6-dihydro-1,5-naphthyridine-2-carbonitrile]",1.5
3,"C[C@@H]1CN(c2cc(=O)n(C)c3ccc(C#N)nc23)CC[C@H]1Oc1ccc(F)cc1 [Example 128, 8-((3R,4R)-4-(4-fluorophenoxy)-3-methylpiperidin-1-yl)-5-methyl-6-oxo-5,6-dihydro-1,5-naphthyridine-2-carbonitrile]",20
4,"CC[C@@H]1CN(c2cc(=O)n(C)c3ccc(C#N)nc23)CC[C@H]1Oc1ccc(C(C)(C)CC)cc1 (single isomer, unassigned) [Example 150]",1.4
5,"C[C@@H]1CN(c2cc(=O)n(C)c3ccc(C#N)nc23)CC[C@H]1Oc1ccc(C(C)(C)C)cc1 (single isomer, unassigned) [Example 90]",5.6
6,"C[C@@H]1CN(c2cc(=O)n(C)c3ccc(C#N)nc23)CC[C@H]1Oc1ccc(C2CCCCC2)cc1 (racemic) [Example 106, 8-((3R,4R)-4-(4-cyclohexylphenoxy)-3-methylpiperidin-1-yl)-5-methyl-6-oxo-5,6-dihydro-1,5-naphthyridine-2-carbonitrile]",2.2
7,"CC[C@@H]1CN(c2cc(=O)n(C)c3ccc(C#N)nc23)CC[C@H]1Oc1cccc(C2CC2)c1 [Example 156, 8-((3R,4R)-4-(3-cyclopropylphenoxy)-3-ethylpiperidin-1-yl)-5-methyl-6-oxo-5,6-dihydro-1,5-naphthyridine-2-carbonitrile]",1.8
8,"CC[C@@H]1CN(c2cc(=O)n(C)c3ccc(C#N)nc23)CC[C@H]1Oc1ccc(C(C)(C)CC)cc1 (racemic) [Example 149, 8-((3R,4R)-3-ethyl-4-(4-(tert-pentyl)phenoxy)piperidin-1-yl)-5-methyl-6-oxo-5,6-dihydro-1,5-naphthyridine-2-carbonitrile]",1.4

# Same assay, conditions: Homo sapiens, human whole blood IFN-γ; read-out: INFg Whole Blood
row,SMILES,EC50 [µM]
1,"C[C@@H]1CN(c2cc(=O)n(C)c3ccc(C#N)nc23)CC[C@@H]1Oc1ccc(C(F)(F)F)cn1 [Example 225, 5-methyl-8-((3R,4S)-3-methyl-4-((5-(trifluoromethyl)pyridin-2-yl)oxy)piperidin-1-yl)-6-oxo-5,6-dihydro-1,5-naphthyridine-2-carbonitrile]",1.8
2,"CC(C)Oc1ccc(OC2CCN(c3cc(=O)n(C)c4ccc(C#N)nc34)CC2(C)C)nc1 (racemic) [Example 232, (+/−) 8-(4-((5-isopropoxypyridin-2-yl)oxy)-3,3-dimethylpiperidin-1-yl)-5-methyl-6-oxo-5,6-dihydro-1,5-naphthyridine-2-carbonitrile]",7
3,"C[C@@H]1CN(c2cc(=O)n(C)c3ccc(C#N)nc23)CC[C@@H]1Oc1ncc(C(F)(F)F)cn1 [Example 222, 5-methyl-8-((3R,4S)-3-methyl-4-((5-(trifluoromethyl)pyrimidin-2-yl)oxy)piperidin-1-yl)-6-oxo-5,6-dihydro-1,5-naphthyridine-2-carbonitrile]",3.9
4,"C[C@@H]1CN(c2cc(=O)n(C)c3ccc(C#N)nc23)CC[C@@H]1Oc1ccc(C2CC2)cn1 [Example 224, 8-((3R,4S)-4-((5-cyclopropylpyridin-2-yl)oxy)-3-methylpiperidin-1-yl)-5-methyl-6-oxo-5,6-dihydro-1,5-naphthyridine-2-carbonitrile]",5.8
5,"CC(C)c1cccc(O[C@H]2CCN(c3cc(=O)n(C)c4ccc(C#N)nc34)C[C@H]2C)n1 (single isomer, unassigned) [Example 215]",2.1
6,"C[C@@H]1CN(c2cc(=O)n(C)c3ccc(C#N)nc23)CC[C@@H]1OCc1ccc(OC(F)(F)F)cc1 (racemic) [Example 235, (+/−) 5-methyl-8-(cis-3-methyl-4-((4-(trifluoromethoxy)benzyl)oxy)piperidin-1-yl)-6-oxo-5,6-dihydro-1,5-naphthyridine-2-carbonitrile]",5.2
7,"C[C@@H]1CN(c2cc(=O)n(C)c3ccc(C(N)=O)nc23)CC[C@@H]1OCc1ccc(OC(F)(F)F)cc1 (racemic) [Example 236, (+/−) 5-methyl-8-(cis-3-methyl-4-((4-(trifluoromethoxy)benzyl)oxy)piperidin-1-yl)-6-oxo-5,6-dihydro-1,5-naphthyridine-2-carboxamide]",20
8,"CC(C)c1ccnc(O[C@H]2CCN(c3cc(=O)n(C)c4ccc(C#N)nc34)C[C@H]2C)c1 [Example 211, 8-((3R,4S)-4-((4-isopropylpyridin-2-yl)oxy)-3-methylpiperidin-1-yl)-5-methyl-6-oxo-5,6-dihydro-1,5-naphthyridine-2-carbonitrile]",3.9
9,"C[C@@H]1CN(c2cc(=O)n(C)c3ccc(C#N)nc23)CC[C@@H]1Oc1ncc(C2CC2)cn1 [Example 223, 8-((3R,4S)-4-((5-cyclopropylpyrimidin-2-yl)oxy)-3-methylpiperidin-1-yl)-5-methyl-6-oxo-5,6-dihydro-1,5-naphthyridine-2-carbonitrile]",17
10,"C[C@@H]1CN(c2cc(=O)n(C)c3ccc(C#N)nc23)CC[C@@H]1Oc1ncccn1 [Example 217, 5-methyl-8-((3R,4S)-3-methyl-4-(pyrimidin-2-yloxy)piperidin-1-yl)-6-oxo-5,6-dihydro-1,5-naphthyridine-2-carbonitrile]",20
11,"C[C@@H]1CN(c2cc(=O)n(C)c3ccc(C#N)nc23)CC[C@@H]1Oc1ccc(C(F)F)cn1 [Example 208, 8-((3R,4S)-4-((5-(difluoromethyl)pyridin-2-yl)oxy)-3-methylpiperidin-1-yl)-5-methyl-6-oxo-5,6-dihydro-1,5-naphthyridine-2-carbonitrile]",2.1

# Same assay, conditions: Homo sapiens, read-out: INFg Whole Blood, human whole blood IFN-γ
row,SMILES,EC50 [µM]
1,"CC[C@@H]1CN(c2cc(=O)n(C)c3ccc(C#N)nc23)CC[C@@H]1Oc1ccc(OC(C)C)cn1 [Example 202, 8-((3R,4S)-3-ethyl-4-((5-isopropoxypyridin-2-yl)oxy)piperidin-1-yl)-5-methyl-6-oxo-5,6-dihydro-1,5-naphthyridine-2-carbonitrile]",2
2,"CC[C@@H]1CN(c2cc(=O)n(C)c3ccc(C#N)nc23)CC[C@H]1Oc1cccc(C(C)(C)C)c1 [Example 196, 8-((3R,4R)-4-(3-(tert-butyl)phenoxy)-3-ethylpiperidin-1-yl)-5-methyl-6-oxo-5,6-dihydro-1,5-naphthyridine-2-carbonitrile]",0.29

# Same assay, conditions: human whole blood IFN-γ; read-out: INFg Whole Blood
row,SMILES,EC50 [µM]
1,CO[C@@H]1CN(c2nc(=O)n(C)c3ccc(C#N)nc23)CC[C@H]1Oc1cccc(C(F)(F)F)c1 (racemic) [Example 277],4.5
2,"CO[C@@H]1CN(c2cc(=O)n(C)c3ccc(C#N)nc23)CC[C@H]1Oc1cccc(C(F)(F)F)c1 (racemic) [Example 261, (±)-trans-8-(3-methoxy-4-(3-(trifluoromethyl)phenoxy)piperidin-1-yl)-5-methyl-6-oxo-5,6-dihydro-1,5-naphthyridine-2-carbonitrile]",0.91
3,"CC(C)Oc1ccc(O[C@H]2CCN(c3cc(=O)n(C)c4ccc(C#N)nc34)C[C@@H]2O)nc1 (racemic) [Example 268, (±)-trans-8-(3-hydroxy-4-((5-isopropoxypyridin-2-yl)oxy)piperidin-1-yl)-5-methyl-6-oxo-5,6-dihydro-1,5-naphthyridine-2-carbonitrile]",13
4,"CO[C@H]1CN(c2cc(=O)n(C)c3ccc(C#N)nc23)CC[C@@H]1Oc1ccc(OC(C)C)cn1 (racemic) [Example 269, (±)-trans-8-(4-((5-isopropoxypyridin-2-yl)oxy)-3-methoxypiperidin-1-yl)-5-methyl-6-oxo-5,6-dihydro-1,5-naphthyridine-2-carbonitrile]",1.6

# Same assay, conditions: human whole blood, anti-CD3 plus anti-CD28, 24 hours; read-out: INFg Whole Blood Normalized Agonist EC50
row,SMILES,EC50 [µM]
1,"CC[C@@H]1CN(c2cc(=O)n(C)c3ccc(C#N)nc23)CC[C@H]1Oc1ccc(C(C)C)cc1 (single isomer, unassigned) [Example 145]",7.8
2,"CC[C@@H]1CN(c2cc(=O)n(C)c3ccc(C#N)nc23)CC[C@H]1Oc1ccc(C(C)(C)C)cc1 (single isomer, unassigned) [Example 154]",11
3,"CC[C@@H]1CN(c2cc(=O)n(C)c3ccc(C#N)nc23)CC[C@H]1Oc1cccc(C2CC2)c1 [Example 157, 8-((3R,4R)-4-(3-cyclopropylphenoxy)-3-ethylpiperidin-1-yl)-5-methyl-6-oxo-5,6-dihydro-1,5-naphthyridine-2-carbonitrile]",2.8
4,"CC[C@@H]1CN(c2cc(=O)n(C)c3ccc(C#N)nc23)CC[C@H]1Oc1ccc(C(C)(C)CC)cc1 (single isomer, unassigned) [Example 151]",2.4
5,"CC[C@@H]1CN(c2cc(=O)n(C)c3ccc(C#N)nc23)CC[C@H]1Oc1ccc(C(F)(F)F)cc1 (single isomer, unassigned) [Example 148]",12

# Same assay, conditions: read-out: INFg Whole Blood; human whole blood IFN-γ
row,SMILES,EC50 [µM]
1,"CCO[C@@H]1CN(c2nc(=O)n(C)c3ccc(C#N)nc23)CC[C@H]1Oc1cccc(C(F)(F)F)c1 [Example 278, 4-((3R,4R)-3-ethoxy-4-(3-(trifluoromethyl)phenoxy)piperidin-1-yl)-1-methyl-2-oxo-1,2-dihydropyrido[3,2-d]pyrimidine-6-carbonitrile]",0.64
2,"CCO[C@@H]1CN(c2nc(=O)n(C)c3ccc(C#N)nc23)CC[C@H]1Oc1cccc(C(F)(F)F)c1 [Example 279, 4-((3R,4R)-3-ethoxy-4-(3-(trifluoromethyl)phenoxy)piperidin-1-yl)-1-methyl-2-oxo-1,2-dihydropyrido[3,2-d]pyrimidine-6-carbonitrile]",8.7
